From PubChem BioAssay AID248 (DTP/NCI, 2004)
Several values for one entry are separate records, joined by “and”; a condition that tells them apart may be missing. Equal entries are not always repeated. Inconclusive results and toxic doses are left out. No stated cut-off is given here; in the data, active means T/C of 150% or more; inactive means T/C below 125%.

Test system: L1210 leukemia ip in BDF1 mice, survival T/C
Test: NCI In Vivo Anticancer Drug Screen. Data for tumor model L1210 Leukemia (intraperitoneal) in B6D2F1 (BDF1) mice
Details: endpoint: mean survival time, higher = longer survival
Outline: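 In this screen, tumor-bearing mice given compound are compared to those given vehicle, and their survival values are reported as a treated-to-control quotient.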

[1] = dose: 100.0 mg/kg/injection, schedule: Q01DX009 (ip), vehicle: Klucel (hydroxypropylcellulose) (HPC)
[2] = dose: 100.0 mg/kg/injection, schedule: Q04DX003 (ip), vehicle: Klucel (hydroxypropylcellulose) (HPC)
[3] = dose: 200.0 mg/kg/injection, schedule: Q01DX009 (ip), vehicle: Klucel (hydroxypropylcellulose) (HPC)
[4] = dose: 200.0 mg/kg/injection, schedule: Q04DX003 (ip), vehicle: Klucel (hydroxypropylcellulose) (HPC)
[5] = dose: 400.0 mg/kg/injection, schedule: Q01DX009 (ip), vehicle: Klucel (hydroxypropylcellulose) (HPC)
[6] = dose: 400.0 mg/kg/injection, schedule: Q04DX003 (ip), vehicle: Klucel (hydroxypropylcellulose) (HPC)
[7] = dose: 100.0 mg/kg/injection, schedule: Q04DX002 (ip), vehicle: Klucel (hydroxypropylcellulose) (HPC)
[8] = dose: 200.0 mg/kg/injection, schedule: Q04DX002 (ip), vehicle: Klucel (hydroxypropylcellulose) (HPC)
[9] = dose: 400.0 mg/kg/injection, schedule: Q04DX002 (ip), vehicle: Klucel (hydroxypropylcellulose) (HPC)
[10] = dose: 100.0 mg/kg/injection, schedule: Q04DX003 (ip), vehicle: saline with Tween-80
[11] = dose: 200.0 mg/kg/injection, schedule: Q04DX003 (ip), vehicle: saline with Tween-80
[12] = dose: 400.0 mg/kg/injection, schedule: Q04DX003 (ip), vehicle: saline with Tween-80
[13] = dose: 50.0 mg/kg/injection, schedule: Q01DX009 (ip), vehicle: saline
[14] = dose: 100.0 mg/kg/injection, schedule: Q01DX009 (ip), vehicle: saline
[15] = dose: 100.0 mg/kg/injection, schedule: Q04DX003 (ip), vehicle: saline
[16] = dose: 200.0 mg/kg/injection, schedule: Q04DX003 (ip), vehicle: saline

Measured: T/C

COc1ccc2c3c1OC1C(OS(=O)(=O)c4ccc(C)cc4)C=CC4C(C2)N(C)CCC341 (centres undefined)
inactive: dose: 75.0 mg/kg/injection, schedule: Q01DX001 (ip), vehicle: carboxymethylcellulose (CMC) 100 % of control | dose: 75.0 mg/kg/injection, schedule: Q01DX001 (ip), vehicle: saline 101 % of control | dose: 150.0 mg/kg/injection, schedule: Q01DX001 (ip), vehicle: carboxymethylcellulose (CMC) 97 % of control | dose: 150.0 mg/kg/injection, schedule: Q01DX001 (ip), vehicle: saline 103 % of control | dose: 300.0 mg/kg/injection, schedule: Q01DX001 (ip), vehicle: carboxymethylcellulose (CMC) 95 % of control | dose: 300.0 mg/kg/injection, schedule: Q01DX001 (ip), vehicle: saline 104 % of control

CC(=O)OC12CCCC(=O)C1C1CC/C=C\CCC12 (centres undefined)
inactive: dose: 100.0 mg/kg/injection, schedule: Q01DX001 (ip), vehicle: Klucel (hydroxypropylcellulose) (HPC) 111 % of control | [1] 98 % of control | [2] 95 % of control | dose: 200.0 mg/kg/injection, schedule: Q01DX001 (ip), vehicle: Klucel (hydroxypropylcellulose) (HPC) 108 % of control | [3] 98 % of control | [4] 98 % of control | dose: 400.0 mg/kg/injection, schedule: Q01DX001 (ip), vehicle: Klucel (hydroxypropylcellulose) (HPC) 102 % of control | [5] 96 % of control | [6] 95 % of control

c1ccc(NCCOc2ccccc2)cc1
inactive: [1] 108 % of control | [7] 114 % of control | [3] 94 % of control | [8] 98 % of control | [9] 88 % of control

CCCCCC#CC(=O)OC(C)C
inactive: dose: 100.0 mg/kg/injection, schedule: Q04DX002 (ip), vehicle: saline with Tween-80 102 % of control | dose: 200.0 mg/kg/injection, schedule: Q04DX002 (ip), vehicle: saline with Tween-80 102 % of control | dose: 400.0 mg/kg/injection, schedule: Q04DX002 (ip), vehicle: saline with Tween-80 102 % of control

c1ccc(C2=NC(c3ccccc3)(C3(c4ccccc4)SCCCS3)CO2)cc1 (centres undefined)
inactive: dose: 75.0 mg/kg/injection, schedule: Q01DX009 (ip), vehicle: Klucel (hydroxypropylcellulose) (HPC) 101 % of control | [2] 102 % of control | dose: 150.0 mg/kg/injection, schedule: Q01DX009 (ip), vehicle: Klucel (hydroxypropylcellulose) (HPC) 98 % of control | [4] 105 % of control | dose: 300.0 mg/kg/injection, schedule: Q01DX009 (ip), vehicle: Klucel (hydroxypropylcellulose) (HPC) 90 % of control | [6] 102 % of control

NC(=O)SCC(=O)NNc1ccccc1
inactive: dose: 75.0 mg/kg/injection, schedule: Q01DX001 (ip), vehicle: other 90 % of control | dose: 150.0 mg/kg/injection, schedule: Q01DX001 (ip), vehicle: other 98 % of control | dose: 300.0 mg/kg/injection, schedule: Q01DX001 (ip), vehicle: other 100 % of control

c1cc2cc3c(cc2cc1CC1=NCCc2cc4c(cc21)OCO4)OCO3
inactive: dose: 100.0 mg/kg/injection, schedule: Q04DX003 (ip), vehicle: other 94 % of control | dose: 200.0 mg/kg/injection, schedule: Q01DX009 (ip), vehicle: other 102 % of control | dose: 200.0 mg/kg/injection, schedule: Q04DX003 (ip), vehicle: other 108 % of control | dose: 400.0 mg/kg/injection, schedule: Q01DX009 (ip), vehicle: other 94 % of control | dose: 400.0 mg/kg/injection, schedule: Q04DX003 (ip), vehicle: other 105 % of control

N#Cc1ccc(/C=C\c2ccc(C#N)cc2)cc1
inactive: dose: 0.6 mg/kg/injection, schedule: Q04DX002 (ip), vehicle: Klucel (hydroxypropylcellulose) (HPC) 104 % of control | dose: 1.2 mg/kg/injection, schedule: Q04DX002 (ip), vehicle: Klucel (hydroxypropylcellulose) (HPC) 104 % of control | dose: 2.5 mg/kg/injection, schedule: Q04DX002 (ip), vehicle: Klucel (hydroxypropylcellulose) (HPC) 97 % of control | dose: 50.0 mg/kg/injection, schedule: Q04DX002 (ip), vehicle: Klucel (hydroxypropylcellulose) (HPC) 104 % of control | [7] 104 % of control and 122 % of control | [8] 109 % of control and 110 % of control | [9] 98 % of control

CN(C)C(=O)c1cccc(NC(=O)Oc2ccccc2)c1
inactive: dose: 100.0 mg/kg/injection, schedule: Q01DX009 (ip), vehicle: saline with Tween-80 109 % of control | [10] 102 % of control | dose: 200.0 mg/kg/injection, schedule: Q01DX009 (ip), vehicle: saline with Tween-80 101 % of control | [11] 100 % of control | dose: 400.0 mg/kg/injection, schedule: Q01DX009 (ip), vehicle: saline with Tween-80 101 % of control | [12] 102 % of control

CC1(C)CC2(CC(C)(C)c3cc(O)c(O)cc32)c2cc(O)c(O)cc21
inactive: [1] 95 % of control | [2] 100 % of control | [3] 100 % of control | [4] 105 % of control | [5] 104 % of control | [6] 102 % of control

CCOC(=O)c1ccc(NC(=O)CN2CCOCC2)cc1
inactive: dose: 222.0 mg/kg/injection, schedule: Q01DX Z (ip), vehicle: saline 102 % of control | dose: 333.0 mg/kg/injection, schedule: Q01DX Z (ip), vehicle: saline 98 % of control | dose: 500.0 mg/kg/injection, schedule: Q01DX Z (ip), vehicle: saline 90 % of control

O=C(C1C(c2ccccc2)C1c1ccccc1)N(CCO)c1ccccc1 (centres undefined)
inactive: dose: 12.5 mg/kg/injection, schedule: Q04DX002 (ip), vehicle: saline 94 % of control | dose: 25.0 mg/kg/injection, schedule: Q04DX002 (ip), vehicle: saline 106 % of control | dose: 50.0 mg/kg/injection, schedule: Q04DX002 (ip), vehicle: saline 94 % of control

Oc1[nH]c(=S)sc1/C=C1\C=NN=N1
inactive: dose: 100.0 mg/kg/injection, schedule: Q01DX001 (ip), vehicle: other 108 % of control | dose: 200.0 mg/kg/injection, schedule: Q01DX001 (ip), vehicle: other 97 % of control | dose: 400.0 mg/kg/injection, schedule: Q01DX001 (ip), vehicle: other 101 % of control

CCNc1ccc([N+](=O)[O-])cn1
inactive: [1] 104 % of control | [3] 106 % of control

C[C@@H](N)[C@@H](O)c1ccccc1
inactive: dose: 30.0 mg/kg/injection, schedule: Q01DX Z (oral), vehicle: saline 101 % of control | dose: 60.0 mg/kg/injection, schedule: Q01DX Z (oral), vehicle: saline 101 % of control

Cc1cccc(Br)[n+]1[O-]
inactive: [13] 110 % of control | [14] 112 % of control | [15] 102 % of control | [16] 97 % of control

CC(C)(C)NC(=O)CCC(CC(=O)NC(C)(C)C)S(=O)(=O)O (centres undefined)
inactive: [13] 97 % of control | [14] 97 % of control | [15] 98 % of control | dose: 200.0 mg/kg/injection, schedule: Q01DX009 (ip), vehicle: saline 90 % of control | [16] 95 % of control

CCCCNC(=O)NC(=O)CS(=O)(=O)c1ccc(C)cc1
inactive: [10] 95 % of control | [11] 95 % of control | [12] 93 % of control

CCOC(=O)C1CN(S(=O)(=O)c2ccc(C)cc2)c2ccccc2C(=O)C1/C(=C/C(=O)OC)C(=O)OC (centres undefined)
inactive: [2] 96 % of control | [4] 94 % of control | [6] 86 % of control
